{"source": "patent US10653131B2", "about": "(priority 2013, dated 2020)", "system": "spores of Bacillus thuringiensis", "data": [{"smiles": "O=[N+]([O-])O", "note": "[nitric acid]", "values": [{"measurement": "destruction, inactivation of spores", "result": "ensured destruction, inactivation"}]}]}
